# Source: US8808751B2, “Methods for the preparation of biologically active compounds in nanoparticulate form” (Iceutica Pty Ltd., priority 2006, dated 2014)
# Where a name gives a salt, the structure may show the parent alone.
# Assays:
# [1] = Dissolution in simulated gastric fluid (USP apparatus); assay type: physicochemical; conditions: simulated gastric fluid (SGF), 60 mg in 1 L fluid, 90 minutes post addition
# Description: (§1) The dissolution properties of the particulate raloxifene hydrochloride were tested with a USP apparatus in simulated gastric conditions, and compared with commercial raloxifene hydrochloride. About 60 mg of particulate raloxifene hydrochloride and commercial raloxifene hydrochloride, respectively, were introduced into gelatin capsules. The dissolution properties were followed as a function of solution concentration versus time.
# The dissolution conditions were as follows: 1 L of 0.1 M HCl containing 2 g of NaCl were degassed and brought to 37° C. in a USP conform dissolution vessel to paddle and stirred at about 80 rpm. […] For each time point, 2 mL of sample were removed from the solution, to remove larger aggregates it was centrifuged for 1 min at 10000 g and 1.5 ml was taken from the top of the solution and the concentration was measured using a Waters HPLC running a method validated with respect to specificity, linearity, precision and repeatability.
# (§2) As tested prior to administration to the dogs, the particulate raloxifene hydrochloride had the following properties: >75% of the particles were in the range of 220-350 nm in size, with >90% in the range of […]. […] At 90 minutes post addition, approximately 15 mg/L of particulate raloxifene was detected versus 8 mg/L of comparison API for SGF; and 4.5 mg/L versus 0.75 mg/L for SIF.
# BET surface area = assay type: physicochemical; conditions: for BET surface area: raloxifene forms, milled with NaCl and washed (commercial: as obtained)
# [2] = Dissolution in simulated intestinal fluid; assay type: physicochemical; conditions: simulated intestinal fluid (SIF), 60 mg in 1 L fluid, 90 minutes post addition
# Description: as §1, §2
# [3] = Pharmacokinetics after oral capsule administration, crossover study; assay type: in vivo; conditions: 12 beagle dogs
# Description: This study involved the investigation of the pharmacokinetics of raloxifene hydrochloride following oral administration of two dosage formulations to 12 male and female beagle dogs. The two dosage forms investigated were 1) raloxifene hydrochloride particles, developed according to the method of the present invention, and 2) standard API. Both forms were administered as capsules prepared by the Pharmaceutics laboratory of TetraQ.
# The study was designed as a crossover trial conducted in 6 male and 6 female healthy Beagle dogs. Raloxifene was administered as an oral dose with three male plus three female dogs each receiving one of the two preparations on each of two dosing occasions. Eleven plasma samples were collected from each animal in the 24 hour period following each dose and these were all available for determination of raloxifene concentration.
# Plasma samples were transported to the TetraQ-ADME laboratories on dry ice and all were in an intact (frozen) condition upon arrival. The concentration of raloxifene in the plasma samples was determined by an LC-MS/MS assay developed and validated by TetraQ-ADME,
# Pharmacokinetic analysis was performed using purpose-written macros for Excel Software. Standard model-independent pharmacokinetic methods were used. Nominal sampling times were used in the calculations. The plasma raloxifene concentrations were used to determine the following parameters: • (i) Cmax Maximum plasma concentration, read directly from the raw data. • (ii) Tmax Time at which Cmax was achieved, also read directly from the raw data. • (iii) ke Terminal elimination rate constant, which was determined as the slope of the regression line of best fit to the approximately log-linear terminal elimination phase (using the least squares linear regression function in the Excel 2003 software). […]
# [4] = Particle size from SEM/TEM images; assay type: physicochemical; conditions: for particle size (SEM/TEM): milled with NaCl, grinding compound removed by washing
# [5] = Particle size distribution (dynamic light scattering); assay type: physicochemical; conditions: washed dispersion, larger aggregates removed by centrifugation
# Source text: In a preferred form of the invention, about 90% of the particles have a particle size of less than about 500 nm. The particles distribution can be measured with dynamic light scattering of a dispersion of the particles with the aid of sonication, and after centrifugation at 500 rcf for 30 seconds to remove larger agglomerates from the dispersion. Other means to measure the particles size are for examples surface area measurements, and electron micrographs, which can be used to support the measured size distribution of the particles.
# The size determined by SEM is in good agreement with the size distribution of the dispersion before drying by dynamic light scatter (DLS) (FIG. 10). Here the particles size was determined with a Malvern HPPS dynamic light scattering apparatus with a size distribution after number of 128±53 nm (number weighted) in intensity a second peak of 300 nm was detected. Prior to the measurement any larger aggregates or agglomerates were removed by 1 min centrifugation at 6000 g, and only the supernatant was analyzed.
# [6] = Stability of drug on dry milling; assay type: physicochemical; conditions: dry milled with NaCl for 180 minutes; attributed to degradation of the drug
# Description: [drawing 3] was placed in a milling apparatus (a 70 cm^3 stainless steel ball mill container) with grinding compound in the form of 3.68 g of NaCl, thereby providing the mixture at 9.6 and 90.4 weight % respectively, corresponding to 15 and 85 volume %, with a total volume of 2 cm^3. Milling media comprising 40 g of 10 mm steel balls (10 pieces) were employed in the container. The milling apparatus was closed under house vacuum prior to milling. […] The mixture was dry milled for 15 minutes and 180 minutes, the composition resulting after milling for both times comprised olanzapine in nanoparticulate form dispersed in the grinding medium NaCl.
# Milling times assayed included 15 and 180 minutes in two separate milling runs. Analysis of the melting point of the nanoparticles produced at 180 minute milling time period confirmed that the resulting composition was olanzapine, with a melting point in the range of 200° C.
# [7] = 15 vol % sample in NaCl, washed, stabilized with CTAB
smiles,measurement,setting,value
"O=C(c1ccc(OCCN2CCCCC2)cc1)c1c(-c2ccc(O)cc2)sc2cc(O)ccc12 [commercial raloxifene hydrochloride, raloxifene hydrochloride]",solution concentration detected (dissolution),[1],~8 mg/L
same,BET surface area,"BET surface area; listed as commercial raloxifene HCl, hydrochloride",0.1 m^2/g
same,solution concentration detected (dissolution),[2],~0.75 mg/L
same,area under the concentration vs. time curve (AUC0-t),[3]; mean±SD,21.36 ± 16.79 ng·h/mL
same,Cmax,"[3]; both sexes, dog, plasma, mean±SD, read-out: maximum plasma concentration (Cmax)",7.69 ± 4.54 ng/mL
same,Tmax,"[3]; both sexes, dog, plasma, read-out: median time to maximum concentration (Tmax)",1.5 h
O=C(c1ccc(OCCN2CCCCC2)cc1)c1c(-c2ccc(O)cc2)sc2cc(O)ccc12 [Raloxifene Free Base],particle diameter calculated from BET surface area,BET surface area; density of 1.2 g/cm^3,85 nm
same,particle diameter calculated from BET surface area,"BET surface area; density of 1.3 g/cm^3, assuming monodispersed nanoparticles",about 80 nm
same,particle diameter calculated from BET surface area,BET surface area; density of 1.4 g/cm^3,70 nm
same,BET surface area,BET surface area,57.7178±0.4095 m^2/g
same,particle size (SEM/TEM),[4],under 100 nm
"O=C(O)Cc1ccccc1Nc1c(Cl)cccc1Cl [DCA, diclofenac acid]",nanoparticle size,[4]; [7],less than 200 nm
same,size of the majority of nanoparticles,[4]; [7],30-50 nm
same,nanoparticle diameter (TEM),"[4]; milled with NH4Cl, washed with 0.01 M HCl and 1 mM CTAB",about 200 nm
same,particle size (SEM/TEM),[4],100-200 nm
same,particle size by DLS (number weighted),[5],160±30 nm
"O=C(c1ccc(OCCN2CCCCC2)cc1)c1c(-c2ccc(O)cc2)sc2cc(O)ccc12 [Raloxifene HCl (Amorphous), raloxifene hydrochloride]",BET surface area,BET surface area; hydrochloride,10.6 m^2/g
same,particle size (SEM/TEM),[4]; hydrochloride,100-200 nm
Cc1cc2c(s1)Nc1ccccc1N=C2N1CCN(C)CC1 [olanzapine],appearance after milling (degradation),[6],some decolourization
